Results from patent publication US20230131899A1, “INHIBITORS OF MICROBIALLY INDUCED AMYLOID” (Axial Therapeutics, Inc., priority 2020, published 2023).
Like-named read-outs stand apart in the source and are kept apart here.

Assays:
[1] = test system: CsgA expression in E. coli MC4100; test: Monocolonized Mouse Model: csgA expression in fecal pellets by qRT-PCR; details: 30 mg/kg, day five of treatment, relative to mice treated with vehicle alone (FIGS. 4A-B)
[2] = target: T1, E. coli CsgA (Escherichia coli, UniProt P28307); test: In vitro ThioflavinT assay of CsgA aggregation (CsgA ThT Assay); assay type: biochemical; details: 1005 minutes; for remaining activity at 25 µM: compound 25 μM; for remaining activity at 100 µM: compound 100 μM
T1 construct: made in house; host or cells: E. coli NEB 3016 slyD::kan, pET11d
T1 sequence (P28307 23-151): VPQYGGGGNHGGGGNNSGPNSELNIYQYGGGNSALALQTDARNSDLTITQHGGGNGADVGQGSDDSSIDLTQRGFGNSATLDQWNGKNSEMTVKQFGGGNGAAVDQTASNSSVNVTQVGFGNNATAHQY
Outline: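 Purified C-terminal His-tagged CsgA, monomerised by desalting and 30-kDa filtration, at 2-20 μM with 20-40 μM ThT in 50 mM potassium phosphate pH 7.3, 1% DMSO, compounds 3.125-200 uM; room temperature, fluorescence (ex 438/em 495 nm) read every 15 min. Background-subtracted signal expressed as percent inhibition versus vehicle at 6-6.5 or 8-9 h, or as percent control AUC.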

[3] = test system: CsgA expression in WT E. coli; test: qRT-PCR of CsgA expression in WT E. coli; assay type: cell-based; details: previously observed
[4] = read-out: CsgA ThT Assay (10 μM CsgA) % Control AUC at 1005 minutes, 25 μM (activity range), CsgA 10 μM, black plates, class symbol
[5] = read-out: CsgA ThT Assay (10 μM CsgA) % Control AUC at 1005 minutes, 25 μM, mean AUC as % of DMSO control, CsgA 10 μM, black plates
[6] = read-out: CsgA ThT Assay (10 μM CsgA) % Control AUC at 1005 minutes, 100 μM (activity range), CsgA 10 μM, black plates, class symbol
[7] = read-out: CsgA ThT Assay (10 μM CsgA) % Control AUC at 1005 minutes, 100 μM, mean AUC as % of DMSO control, CsgA 10 μM, black plates

Row | SMILES | csgA expression in E. coli MC4100 monocolonized mice [1] | remaining activity at 25 µM [2, 4] [%] | remaining activity at 25 µM [2, 5] [%] | remaining activity at 100 µM [2, 6] [%] | remaining activity at 100 µM [2, 7] [%] | CsgA expression via qRT-PCR [3]
1 | CCCN1CC(C(=O)O)n2c(c(-c3cccc(C(F)(F)F)c3)c(Cc3cccc4ccccc34)cc2=O)S1(=O)=O (racemic) [Compound 016, 8-(naphthalen-1-ylmethyl)-6-oxo-2-propyl-9-(3-(trifluoromethyl)phenyl)-3,4-dihydro-2H,6H-pyrido[1,2-e][1,2,5]thiadiazine-4-carboxylic acid 1,1-dioxide] | reduction of csgA expression | 31 to 60 | 48 | 31 to 60 | 33 | –
2 | Nc1c(Cc2cccc3ccccc23)c(-c2cccc(C(F)(F)F)c2)c2n(c1=O)C(C(=O)O)CS2 (racemic) [Compound 020, 6-amino-7-(naphthalen-1-ylmethyl)-5-oxo-8-(3-(trifluoromethyl)phenyl)-2,3-dihydro-5H-thiazolo[3,2-a]pyridine-3-carboxylic acid] | – | 11 to 31 | 18 | < 10 | 7 | inhibit CsgA expression
3 | CN1CC(C(=O)O)n2c(c(-c3cccc(C(F)(F)F)c3)c(Cc3cccc4ccccc34)c(N)c2=O)S1(=O)=O (stereo not drawn) [Compound 074, 7-amino-2-methyl-8-(naphthalen-1-ylmethyl)-6-oxo-9-(3-(trifluoromethyl)phenyl)-3,4-dihydro-2H,6H-pyrido[1,2-e][1,2,5]thiadiazine-4-carboxylic acid 1,1-dioxide] | – | 11 to 31 | 28 | 11 to 31 | 24 | –
4 | CN(C)Cc1c(Cc2cccc3ccccc23)c(-c2cccc(C(F)(F)F)c2)c2n(c1=O)C(C(=O)O)CS2 (stereo not drawn) [Compound 075, 6-((dimethylamino)methyl)-7-(naphthalen-1-ylmethyl)-5-oxo-8-(3-(trifluoromethyl)phenyl)-2,3-dihydro-5H-thiazolo[3,2-a]pyridine-3-carboxylic acid] | – | > 60 | 118 | > 60 | 117 | –
5 | CN1CC(C(=O)O)n2c(c(-c3cccc(C(F)(F)F)c3)c(Cc3cccc4ccccc34)c(C(N)=O)c2=O)S1(=O)=O (stereo not drawn) [Compound 109, 7-carbamoyl-2-methyl-8-(naphthalen-1-ylmethyl)-6-oxo-9-(3-(trifluoromethyl)phenyl)-3,4-dihydro-2H,6H-pyrido[1,2-e][1,2,5]thiadiazine-4-carboxylic acid 1,1-dioxide] | – | 31 to 60 | 55 | 11 to 31 | 22 | –
6 | CCc1c(Cc2cccc3ccccc23)c(-c2cccc(C(F)(F)F)c2)c2n(c1=O)C(C(=O)O)CN(C1CCCCC1)S2(=O)=O (stereo not drawn) [Compound 116, 2-cyclohexyl-7-ethyl-8-(naphthalen-1-ylmethyl)-6-oxo-9-(3-(trifluoromethyl)phenyl)-3,4-dihydro-2H,6H-pyrido[1,2-e][1,2,5]thiadiazine-4-carboxylic acid 1,1-dioxide] | – | 11 to 31 | 30 | 31 to 60 | 38 | –
7 | CN1CC(C(=O)O)n2c1c(-c1cccc(C(F)(F)F)c1)c(Cc1cccc3ccccc13)c(Br)c2=O (stereo not drawn) [Compound 119, 6-bromo-1-methyl-7-(naphthalen-1-ylmethyl)-5-oxo-8-(3-(trifluoromethyl)phenyl)-1,2,3,5-tetrahydroimidazo[1,2-a]pyridine-3-carboxylic acid] | – | 31 to 60 | 47 | 31 to 60 | 35 | –
8 | O=C(O)C1CN(CCCO)S(=O)(=O)c2c(-c3cccc(C(F)(F)F)c3)c(Cc3cccc4ccccc34)c(NC3CCCC3)c(=O)n21 (stereo not drawn) [Compound 120, 7-(cyclopentylamino)-2-(3-hydroxypropyl)-8-(naphthalen-1-ylmethyl)-6-oxo-9-(3-(trifluoromethyl)phenyl)-3,4-dihydro-2H,6H-pyrido[1,2-e][1,2,5]thiadiazine-4-carboxylic acid 1,1-dioxide] | – | 11 to 31 | 28 | 11 to 31 | 12 | –
9 | O=C(O)C1CN(CCCCO)S(=O)(=O)c2c(-c3cccc(C(F)(F)F)c3)c(Cc3cccc4ccccc34)c(NC3CCCC3)c(=O)n21 (stereo not drawn) [Compound 121, 7-(cyclopentylamino)-2-(4-hydroxybutyl)-8-(naphthalen-1-ylmethyl)-6-oxo-9-(3-(trifluoromethyl)phenyl)-3,4-dihydro-2H,6H-pyrido[1,2-e][1,2,5]thiadiazine-4-carboxylic acid 1,1-dioxide] | – | 31 to 60 | 32 | 11 to 31 | 15 | –
10 | O=C(O)C1CN(CCCCCO)S(=O)(=O)c2c(-c3cccc(C(F)(F)F)c3)c(Cc3cccc4ccccc34)c(NC3CCCC3)c(=O)n21 (stereo not drawn) [Compound 122, 7-(cyclopentylamino)-2-(5-hydroxypentyl)-8-(naphthalen-1-ylmethyl)-6-oxo-9-(3-(trifluoromethyl)phenyl)-3,4-dihydro-2H,6H-pyrido[1,2-e][1,2,5]thiadiazine-4-carboxylic acid 1,1-dioxide] | – | 31 to 60 | 32 | 11 to 31 | 15 | –
11 | CC(C)N1CC(C(=O)O)n2c(c(-c3cccc(C(F)(F)F)c3)c(Cc3cccc4ccccc34)c(NC3CCCC3)c2=O)S1(=O)=O (stereo not drawn) [Compound 123, 7-(cyclopentylamino)-2-isopropyl-8-(naphthalen-1-ylmethyl)-6-oxo-9-(3-(trifluoromethyl)phenyl)-3,4-dihydro-2H,6H-pyrido[1,2-e][1,2,5]thiadiazine-4-carboxylic acid 1,1-dioxide] | – | 11 to 31 | 26 | 11 to 31 | 25 | –
12 | CCCN1CC(C(=O)O)n2c(c(-c3cccc(C(F)(F)F)c3)c(Cc3cccc4ccccc34)c(NC3CCCC3)c2=O)S1(=O)=O (stereo not drawn) [Compound 126, 7-(cyclopentylamino)-8-(naphthalen-1-ylmethyl)-6-oxo-2-propyl-9-(3-(trifluoromethyl)phenyl)-3,4-dihydro-2H,6H-pyrido[1,2-e][1,2,5]thiadiazine-4-carboxylic acid 1,1-dioxide] | – | 31 to 60 | 36 | 31 to 60 | 40 | –
13 | CCCN1CC(C(=O)O)n2c(c(-c3cccc(C(F)(F)F)c3)c(Cc3cccc4ccccc34)c(NC3CCOCC3)c2=O)S1(=O)=O (stereo not drawn) [Compound 127, 8-(naphthalen-1-ylmethyl)-6-oxo-2-propyl-7-((tetrahydro-2H-pyran-4-yl)amino)-9-(3-(trifluoromethyl)phenyl)-3,4-dihydro-2H,6H-pyrido[1,2-e][1,2,5] thiadiazine-4-carboxylic acid 1,1-dioxide] | – | 11 to 31 | 26 | < 10 | 7 | –
